Test results: BindingDB's records for doi:10.1016/j.bmcl.2005.05.127 (Wyeth Research, 2005)

Assays:
[1] = Inhibitory concentration against human p21 […] cell (p21+/+) proliferation
[2] = Inhibitory concentration against human p21 proficient cell (p21+/+) proliferation
[3] = Inhibitory concentration against human p21 deficient cell (p21-/-) proliferation

| IC50 [2] [µM] | IC50 [3] [µM] | Compound | IC50 [1] [µM] |
| --- | --- | --- | --- |
| – | – | O=C(c1cccs1)c1cnn2c(-c3cccc(NC(=O)C4CC4)c3)ccnc12 | 12 |
| – | – | COc1cc(-c2nc3sc4c(c3c(=O)[nH]2)CCCC4)cc(OC)c1OC | > 20 |
| > 20 | > 20 | COc1ccc(-c2nc3sc4c(c3c(=O)[nH]2)CCCC4)cc1OC | – |
